Assay results: patent US10604508B2, “2,3-dihydro-isoindole-1-one derivative as BTK kinase suppressant, and pharmaceutical composition including same” (CrystalGenomics, Inc., priority 2012, dated 2020)

Legend:
Type in all cases: cell-based
Jeko-1 = assay: MTS anti-proliferation assay, Jeko-1; details: human lymphoma cell line, 48 hours
Method: (§1) MTS assay was performed to evaluate the anti-proliferative activities of the inventive compounds via inhibition on extracellular signal-regulated kinase (Barltrop, J. A. et al., (1991) 5-(3-carboxymethoxyphenyl)-2-(4,5-dimethylthiazoly)-3-(4-sulfophenyl) tetrazolium, inner salt (MTS) and related analog of 3-(4,5-dimethylthiazolyl)-2,5,-diphenyltetrazolium bromide (MTT) reducing to purple water soluble formazans as cell-viability indicators. Bioorg. Med Chem. Lett. 1, 611-4; Cory, A. H. et al., (1991) Use of an aqueous soluble tertrazolium/formazan assay for cell growth assays in culture. Cancer Comm. 3, 207-12).
(§2) Human lymphoma cell lines Jeko-1 (ATCC), Mino (ATCC), H9 (Korean Cell Line Bank) and SR (ATCC), and human leukemia cell lines MV4-11 (ATCC), Molm-13 (DSMZ) and Ku812 (ATCC) were used for the test according to the procedure shown below.
(§3) Each of Jeko-1, Mino, H9, SR, MV4-11, Molm-13 and Ku812 cells were transferred into 96-well plates containing RPMI1640 medium (GIBCO, Invitrogen) supplemented with 10% FBS at a density of 10,000 cells/well, and then incubated for 24 hours under conditions of 37° C. and 5% CO2. The wells were treated with each of 0.2, 1, 5, 25 and 100 μM, of the test compounds. The well was treated with DMSO in an amount of 0.08 wt %, which is the same amount as in the test compounds, which was used as a control. The resulting cells were incubated for 48 hours.
(§4) MTS assays are commercially available and include the Promega CellTiter 96® Aqueous Non-Radioactive Cell Proliferation Assay. MTS assays were performed in order to evaluate cell viability of the test compounds. 20 μL of a mixed solution of 3-(4,5-dimethylthiazol-2-yl)-5-(3-carboxymethoxyphenyl)-2-(4-sulfophenyl)-2H-tetrazolium, inner salt (“MTS”) and phenazine methosulfate (PMS) was added to each well, and then incubated for 2 hours at 37° C. Then absorbance of the samples was read at 490 nm. The anti-proliferation activity level was calculated based on absorbance of the test compounds against that of the untreated control group. The EC50 (μM) values, in which test compounds reduce the growth of cancer cells by 50% were calculated.

SR = assay: MTS anti-proliferation assay, SR; details: human lymphoma cell line, 48 hours
Method: as §1, §2, §3, §4

RBL-2H3 cell line = assay: Histamine Release Assay; details: Rattus norvegicus; RBL-2H3 cells, 500 ng/mL monoclonal anti-DNP, 24 hours
Method: Histamine release assays were performed with reference to the method disclosed in the article, FEBS Lett. 2002 Sep. 11; 527 (1-3):274-8. Silencing of Bruton's tyrosine kinase (Btk) using short interfering RNA duplexes (siRNA). Heinonen J E, Smith C I, Nore B F, and the amount of histamine was measured by an enzyme immunoassay.
The RBL-2H3 cell line, purchased from KCLB (Korean Cell Line Bank), was grown in a DMEM medium supplemented with 10% (v/v) FBS at 37° C. in a 5% CO2 incubator for 72 hours. The cells were transferred into 96-well plates at a density of 10,000 cells/well, and cultured at 37° C. in the 5% CO2 incubator for 24 hours.
The cells were treated with 500 ng/mL of monoclonal anti-DNP (sigma) and each of 0.001, 0.01, 0.1, 1.0 and 10 μM of the test compound in 100% (v/v) dimethyl sulfoxide (DMSO). The cells were treated only with 100% (v/v) DMSO, which was used as a control. The treated samples were cultured at 37° C. in the 5% CO2 incubator for 24 hours. Then, histamine release was measured according to manufacturer's instructions (EIA histamine kit, immunotech). Each well was treated with 50 μL of a histamine release buffer, and allowed to react for 30 minutes at 37° C. Upon completion of the reaction, 100 μL of a sample from each well was transferred to a new plate, and then was thoroughly mixed with 25 μL of an acetylation buffer and 25 μL of an acetylation reagent. 50 μL of the acetylation sample thus prepared was transferred to a plate coated with an antibody, mixed with 200 μL of histamine alkaline phosphatase conjugate, and then allowed to react for 18 hours at 4° C. Once the reaction is completed, the sample from the plate is removed, and then 200 μL of a wash buffer was added to wash three times. 200 μL of a substrate was added thereto, and the mixture was allowed to react at room temperature for 30 minutes. The reaction was terminated by adding 50 μL of a stop solution, and absorbance of the samples was read at 406 nm using Benchmark Plus (Biorad). The histamine release level was calculated based on absorbance of the test group against that of the control group. The EC50 (μM) values, in which test compounds reduce the histamine release by 50%, were determined by using Microsoft Excel graphic program.

H9 = assay: MTS anti-proliferation assay, H9; details: human lymphoma cell line, 48 hours
Method: as §1, §2, §3, §4

MV4-11 = assay: MTS anti-proliferation assay, MV4-11; details: human leukemia cell line, 48 hours
Method: as §1
(§5) Human lymphoma cell lines Jeko-1 (ATCC), Mino (ATCC), H9 (Korean Cell Line Bank) and SR (ATCC), and human leukemia cell lines MV4-11 (ATCC), Molm-13 (DSMZ) and Ku812 (ATCC) were used for the test according to the procedure shown below. […]
(§6) MTS assays are commercially available and include the Promega CellTiter 96® Aqueous Non-Radioactive Cell Proliferation Assay. […] Then absorbance of the samples was read at 490 nm. The anti-proliferation activity level was calculated based on absorbance of the test compounds against that of the untreated control group. […]

Mino = assay: MTS anti-proliferation assay, Mino; details: human lymphoma cell line, 48 hours
Method: as §1, §5, §6

Molm-13 = assay: MTS anti-proliferation assay, Molm-13; details: human leukemia cell line, 48 hours
Method: as §1, §5, §6

Ku812 = assay: MTS anti-proliferation assay, Ku812; details: human leukemia cell line, 48 hours
Method: as §1, §5, §6

EC50 (RBL-2H3 cell line) [nM]	EC50 (MV4-11) [nM]	EC50 (Molm-13) [nM]	SMILES	EC50 (Jeko-1) [nM]	EC50 (SR) [nM]	EC50 (H9) [nM]	EC50 (Mino) [nM]	EC50 (Ku812) [nM]
350			Cc1cnc(-c2ccc(-c3ccc(NC(=O)Nc4c(F)c(F)c(F)c(F)c4F)cc3F)c3c2C(=O)NC3)[nH]1 [Compound 9, 1-{3-fluoro-4-[7-(5-methyl-1H-imidazol-2-yl)-1-oxo-2,3-dihydro-1H-isoindol-4-yl]-phenyl}-3-pentafluorophenyl-urea]	30	18	6		
40	4	12	Cc1cnc(-c2ccc(-c3ccc(NC(=O)Nc4c(F)ccc(Cl)c4F)cc3F)c3c2C(=O)NC3)[nH]1 [Compound 17, 1-(3-chloro-2,6-difluorophenyl)-3-(3-fluoro-4-(7-(5-methyl-1H-imidazol-2-yl)-1-oxoisoindolin-4-yl)phenyl)urea]	30	25	20	18	190
300			Cc1cnc(-c2ccc(-c3ccc(NC(=O)Nc4c(F)ccc(F)c4F)cc3F)c3c2C(=O)NC3)[nH]1 [Compound 12, 1-{3-fluoro-4-[7-(5-methyl-1H-imidazol-2-yl)-1-oxo-2,3-dihydro-1H-isoindol-4-yl]-phenyl}-3-(2,3,6-trifluoro-phenyl)-urea]	150	20	40		
300			Cc1cnc(-c2ccc(-c3ccc(NC(=O)Nc4c(F)c(F)cc(F)c4F)cc3F)c3c2C(=O)NC3)[nH]1 [Compound 20, 1-{3-fluoro-4-[7-(5-methyl-1H-imidazol-2-yl)-1-oxo-2,3-dihydro-1H-isoindol-4-yl]-phenyl}-3-(2,3,5,6-tetrafluoro-phenyl)-urea]	30	17	10		
220	2	3	Cc1cnc(-c2ccc(-c3ccc(NC(=O)Nc4c(F)cc(F)cc4F)cc3F)c3c2C(=O)NC3)[nH]1 [Compound 7, 1-{3-fluoro-4-[7-(5-methyl-1H-imidazol-2-yl)-1-oxo-2,3-dihydro-1H-isoindol-4-yl]-phenyl}-3-(2,4,6-trifluoro-phenyl)-urea]	30	15	7	18	600

The next lines start with the compound.

SMILES	EC50 (RBL-2H3 cell line) [nM]	EC50 (MV4-11) [nM]	EC50 (Molm-13) [nM]	EC50 (Jeko-1) [nM]	EC50 (SR) [nM]	EC50 (H9) [nM]	EC50 (Mino) [nM]	EC50 (Ku812) [nM]
Cc1cnc(-c2ccc(-c3ccc(NC(=O)Nc4ccc(C#N)c(F)c4)cc3F)c3c2C(=O)NC3)[nH]1 [Compound 15, 1-(4-cyano-3-fluorophenyl)-3-(3-fluoro-4-(7-(5-methyl-1H-imidazol-2-yl)-1-oxoisoindolin-4-yl)phenyl)urea]	220			100	150	190		
Cc1cnc(-c2ccc(-c3ccc(NC(=O)Nc4c(F)cc(Cl)cc4F)cc3F)c3c2C(=O)NC3)[nH]1 [Compound 19, 1-(4-chloro-2,6-difluoro-phenyl)-3-{3-fluoro-4-[7-(5-methyl-1H-imidazol-2-yl)-1-oxo-2,3-dihydro-1H-isoindol-4-yl]-phenyl}-urea]	300			30	20	40		
Cc1cnc(-c2ccc(-c3ccc(NC(=O)Nc4ccc(F)c(F)c4)cc3F)c3c2C(=O)NC3)[nH]1 [Compound 14, 1-(3,4-difluoro-phenyl)-3-{3-fluoro-4-[7-(5-methyl-1H-imidazol-2-yl)-1-oxo-2,3-dihydro-1H-isoindol-4-yl]-phenyl}-urea]	200			30	18	20		
Cc1cnc(-c2ccc(-c3ccc(NC(=O)Nc4c(F)ccc(F)c4Cl)cc3F)c3c2C(=O)NC3)[nH]1 [Compound 18, 1-(2-chloro-3,6-difluorophenyl)-3-(3-fluoro-4-(7-(5-methyl-1H-imidazol-2-yl)-1-oxoisoindolin-4-yl)phenyl)urea]	300			30	20	20		
Cc1cnc(-c2ccc(-c3ccc(NC(=O)Nc4c(F)cccc4Cl)cc3F)c3c2C(=O)NC3)[nH]1 [Compound 4, 1-(2-chloro-6-fluoro-phenyl)-3-{3-fluoro-4-[7-(5-methyl-1H-imidazol-2-yl)-1-oxo-2,3-dihydro-1H-isoindol-4-yl]-phenyl}-urea]	250			100	30	30		
Cc1cnc(-c2ccc(-c3ccc(NC(=O)Nc4c(F)cccc4F)cc3F)c3c2C(=O)NC3)[nH]1 [Compound 3, 1-(2,6-difluoro-phenyl)-3-{3-fluoro-4-[7-(5-methyl-1H-imidazol-2-yl)-1-oxo-2,3-dihydro-1H-isoindol-4-yl]-phenyl}-urea]	450			100	100	30		
